What was measured:
Format in all cases: in vivo
[1] = tested on: Adult mosquitoes (Culex quinquefasciatus); assay: Mosquito chamber test, protection time until first bite on lotion-coated arms of human volunteers; settings: for Protection Time: 5 wt % in lotion base, elbow to fingertips of human volunteers, time to first bite, mean ± SEM, 4 volunteers
Protocol: Adult mosquitoes (Culex quinquefasciatus) were kept inside a screened chamber measuring 2 ft×2 ft×2 ft at a density of 200 mosquitoes per chamber. The mosquitoes are aged 3 to 10 days after emergence from larvae and were starved for 24 hours prior to each test. Each of the test compounds (supplied as a gift from Symrise GmbH & Co Kg, Holzminden, Germany) was added to a commercial lotion base (Cresto Laboratories, […], Philippines) and thoroughly mixed into the lotion using an electronic mixer. The resulting formulation was applied from the elbow to the tip of the fingers of human volunteers. The coated arms of the volunteers were then inserted, in turn, inside the chamber up to the elbow. The protection time was determined for each formulation as the length of time until a mosquito had taken its first bite, after which the test was terminated. The data in Table 1 show the protection time determined in this manner for the compounds tested.

mosquito biting activity = assay: Mosquito chamber protection time of combinations with DEET and citronella product (Natrapel); settings: both at 10% w/w in hydrophilic ointment base, arms of 3 human volunteers
Protocol: To test the effectiveness of menthol propyleneglycol-carbonate(menthol propyleneglycol-carbonate) in enhancing the effect of the known insect repellent DEET against mosquito biting activity, this study was undertaken by combining racemic menthol propyleneglycol-carbonate with DEET (purchased from Sigma-Aldrich). The two chemicals were added at 10% w/w in an Hydrophilic ointment base (E. Fougera & Co., Melville, N.Y.) and applied on the exposed arms of human volunteers. The treated arms were inserted inside a mosquito chamber and the protection time was determined. […] The recorded data represents the mean and standard error of 3 human volunteers.
To test the effectiveness of menthol propyleneglycol-carbonate in enhancing the effect of another known mosquito repellent product, an experiment was undertaken in Which menthol propyleneglycol-carbonate was added at a concentration of 10% w/w to a citronella-based product (Natrapel) manufactured by Tender Corporation (Littleton, N.H.).

fire ants (s. invicta) = assay: Fire ant bait protection test; settings: 50% (v/v) in ethanol sprayed on peanut butter bait, 4 replicates, terminated after 5 hours
Protocol: In this study, the repellent effect of racemic menthol propyleneglycol-carbonate was examined by preparing a solution of this chemical in ethanol at concentration of 50% (v/v). The solution was sprayed with a pump spray dispenser ([…] & Associates, Duarte, Calif.) to a bait composed of sugary food (in this case, peanut butter). The control was composed of ethanol alone. This study was conducted in Fort Pierce, Fla. The protection time was measured as the time when the first ant started consuming the bait. […] The experiment was terminated after 5 hours of observation. Each study group was composed of 4 replicates. In the control which was sprayed with ethanol alone, the fire ants (s. invicta) were seen on the bait within 3 minutes after the spray was applied.

[2] = tested on: red ant (pharaoh ant, Monomorium pharaonis); assay: Ant repellent test, impregnated filter paper barrier around table leg; settings: mean ± SEM of 5 tests
Protocol: The red ant (pharaoh ant, Monomorium pharaonis) was selected for this ant repellent test since it has a worldwide distribution and is known to be a household pest. Red ants are attracted to the smell of food. The attractant in this experiment was a piece of chocolate, which was placed on a tabletop 5 hours before the test. Within 2 hours after being released on the ground around the table, the red ants established a route from the ground up the table legs. At the 5th hour, a filter paper impregnated with racemic menthol propyleneglycol-carbonate at two concentrations was placed around the middle portion of the table leg. The test compound was dissolved in ethanol and impregnated into a pre-weighed, 2 inch by 7 inch piece of filter paper. After complete evaporation of ethanol, the filter paper was weighed and the final weight of the test compound was determined per cm^2 of the filter paper. The control employed was the same filter paper soaked with ethanol only. The time for the first ant to cross the filter paper barrier was determined.

mosquito = assay: Outdoor mosquito tests, protection time on exposed arms of human volunteers; settings: outdoors from 3:00 PM, 3 human volunteers per group, test chemical 10% w/w in ointment base, ± SEM
Protocol: To validate the efficacy of menthol propyleneglycol-carbonate under ambient conditions in nature, this chemical was mixed in an ointment base at 10% w/w and applied to the exposed arms of human volunteers who remained outdoors during the peak period of mosquito biting, beginning at 3:00 PM. The protection time was recorded and compared with that obtained from human volunteers using a commercially available insect repellent (OFF! Skintastic; 7% DEET) manufactured by SC Johnson & Sons, Inc. (Racine, Wis.). Control ointment consisted of Fougera ointment without any active ingredient. The protection time was determined for 3 human volunteers for each test group.

mosquitoes = assay: Standard mosquito chamber test of halloysite-entrapped and free active in aloe vera cream; settings: 20% w/w in aloe vera cream, forearm, 3 human volunteers; in min
Protocol: This study was conducted to evaluate the suitability of encapsulation or entrapment as a means of reducing the amount of racemic menthol propyleneglycol-carbonate required to produce a repellent effect and to provide a means of protecting the active material from degradation by other excipients in the formulation or from high temperatures associated with manufacturing, as in the case of impregnation of textile materials. The halloysite clay represents an example of many other suitable encapsulation materials available in the industry and is not intended as a limitation of the scope of this invention.
Halloysite clay is a naturally derived, nontoxic, biodegradable material typically used in the manufacture of porcelain, bone china and fine china. U.S. Pat. No. 5,651,976 to Price and Gaber describes a new method of controlled release using microtubules made from halloysite clay. […] The halloysite entrapped racemic menthol propyleneglycol-carbonate used in this study was supplied as a gift from Federal Technology Group (Bozeman, Mont.), with a total entrapped active material determined at 17% of the total weight. […] Protection time was measured as the time at which the human subject experienced the first mosquito bite. […]

[3] = tested on: stable fly or dog fly (Stomoxys calcitrans); assay: Stable flies landing on sprayed meat bait
Protocol: To test the effectiveness of racemic menthol propylene glycol carbonate, a 50% solution was prepared in 95% ethanol and sprayed using a standard spray bottle. Stable flies were collected by placing a screened cage containing (Peaceful Valley Farm Supply, Grass Valley, Calif.) bait beside a horse stable one day prior to the test. Approximately 200 stable flies were collected from each cage. The test bait comprising pieces of beef was placed in an aluminum pan at the bottom of the collecting cage. The test was conducted using meat sprayed with 50% racemic menthol propyleneglycol-carbonate solution, with a control composed of meat sprayed with ethanol alone. The test was conducted in duplicate. The number of stable flies landing and feeding on the meat was counted periodically.

[4] = tested on: milk termite, Coptotermes vastator; assay: Inhibition of termite infestation, weight loss of impregnated soft wood
Protocol: The milk termite, Coptotermes vastator, is a pest found in tropical and sub-tropical areas. To test the efficacy of racemic menthol propyleneglycol-carbonate, this chemical was dissolved in 95% ethanol at concentration of 10% w/w and pieces of pre-weighed soft wood were immersed in the solution for 24 hours. After impregnation, the wood was allowed to dry in air to remove the ethanol which has a lower flash point. The dry wood was reweighed to determine the total amount of racemic menthol propyleneglycol-carbonate absorbed into the wood. The weight of racemic menthol propyleneglycol-carbonate absorbed was 26 milligrams per gram of wood. Controls were prepared using wood impregnated with 95% ethanol alone.
The wood test samples were placed on top of a fallen jackfruit tree (Artocarpus heterophylla) heavily infested by termites under ambient, natural, outdoor conditions for a period of 2 months. At the end of the test period, the wood samples were cleaned of debris and termites, dried in the sun and weighed. The degree of wood preservation was determined by the amount of weight loss during the test period.

CC1CCC(C(C)C)C(OC(=O)OCCCCCCCCCO)C1 (stereo not shown) [menthyl-9-hydroxynonyl-carbonate]
Protection Time [1]: 79 ± 14 min

CC(O)COC(=O)OC1CC(C)CCC1C(C)C (racemic) [racemic menthol propyleneglycol-carbonate]
Protection Time [1]: 283 ± 17 min | effectiveness in preventing mosquito bites relative to menthol or isopulegol ([1]; from Table I protection times, 5 wt % in lotion): almost nine times more effective | inhibitory effect on mosquito bite (FIG. 1) ([1]; lotion containing various concentrations): dose dependent manner | protection time / repellent effect of combination with DEET versus either compound alone (FIG. 3) (mosquito biting activity): greater protection time | Protection Time (fire ants (s. invicta)): at least 5 hours | Protection Time (fire ants (s. invicta); listed as Racemic menthol propyleneglycol-carbonate): >5 h | Time to cross barrier ([2]; 15 mg/cm^2 on filter paper): 63 ± 18 min | Time to cross barrier ([2]; 30 mg/cm^2 on filter paper): 760 ± 76 min | Protection Time (mosquito): 227 ± 19 min | PROTECTION TIME (Mean ± SEM) (mosquitoes): 93 ± 6 | time by which the spray lost its efficacy ([3]; from the initial single application of 50% spray): ≤ 9 h | time the spray remained very effective ([3]; single application of 50% spray on meat): at least 5 hours | termite consumption of the wood ([4]; impregnated wood, 2 months): completely prevented from consuming the wood | Percent of weight loss ([4]; soft wood impregnated from 10% w/w ethanol solution (26 mg per gram of wood), 2 months outdoors on termite-infested tree): 0.8 ± 0.4%

C=C(C)C1CCC(C)CC1O (single isomer, unassigned; (-)) [(−)-isopulegol, 5-methyl-2-(1-methylethenyl) cyclohexanol, reference compound]
Protection Time [1]: 56 ± 7 min

isopulegol propyleneglycol-carbonate
Protection Time [1]: 152 ± 36 min

CC1CCC(C(C)C)C(O)C1 (stereo not shown) [1-menthol, 1-5-methyl-2-isopropyl cyclohexanol, reference compound]
Protection Time [1]: 30 ± 9 min

CC1CCC(C(C)C)C(OCC(O)CO)C1 (stereo not shown) [menthoxy-propane-1,2-diol]
Protection Time [1]: 68 ± 17 min

From patent US20060270737A1, “Menthol propyleneglycol-carbonate and analogs thereof as insect pest repellents” (priority 2003, published 2006)
